Source: patent US7258999B2, “PTH responsive gene” (Wyeth, priority 2002, dated 2007)

Assays:
PAIGB expression [1] = experiment: Real time PCR of PAIGB expression in rat tibia; type: in vivo
Protocol: RNA isolation was performed on bone as well as from different cell lines used during experimentation. RNA was isolated from rat tibiae as follows. Following euthanasia by CO2 asphyxiation tibiae were dissected free of soft tissue as rapidly as possible with autoclaved instruments, wiped with autoclaved gauze soaked in ethanol and the epiphysis broken off at the proximal growth plate by hand and discarded. The tibia was then cut transversely with bone cutters just distal to the proximal growth plate and just proximal to the distal tibia-fibula junction to expose the trabecular bone and the bone marrow. The trabecular bone and marrow cavity was flushed with ice cold sterile PBS using a Lancer liquid transfer pipette (Oxford Labware, St. Louis, Mo.) to remove the marrow and the cleaned bone placed in liquid nitrogen.
Applicants performed multiplex real time PCR (TaqMan) analysis on previously DNAsed samples using gene specific probe and primers and 18S ribosomal RNA probe and primer sets purchased from Applied Biosystem. (Foster City, Calif.) The samples were DNAsed according to the protocol provided by Ambion (DNA-free kit). TaqMan probe and primers for PAIGB was identify using Primer Express computer program. The sequence for rat PAIGB TaqMan probe was 6FAM-5′[…] (SEQ ID NO: 16) forward and reverse primers were 5′[…] 3′ (SEQ ID NO:17) and 5′ […] 3′ (SEQ ID NO:18) respectively. The final concentrations for probes were 500 nM and 40 nM for PAIGB and 18S ribosomal RNA or GAPDH respectively. The concentrations of the primers were 500 nM for PAIGB forward and reversed primers while 18S primers were 10 and 20 nM for forward and reversed primer respectively or 40 nM for GAPDH primers. Standards for rat samples were made from rat tibia or brain RNA in the range of 250 ng to 0.1 ng, while standards for mouse specific TaqMan were made from mouse brain RNA and human standards from human brain RNA (Clonetech, Palo Alto, Calif.) spanning the same range of concentration. Primers and probes for mouse PAIGB were: forward 5′ […] 3′ (SEQ ID NO:19), reverse, 5′ […] 3′ (SEQ ID NO:20) anti-sense and probe 5′ 6FAM-[…] (SEQ ID NO:21). Primers and probes for human PAIGB were: forward 5′ […] 3′ (SEQ ID NO:22), reverse 5′ […] 3′(SEQ ID NO:23), and PROBE 5′ 6FAM-[…] 3′(SEQ ID NO: 24). The Taq-man analysis was done using ABI 7700 Sequence Detector under following conditions: 30 min at 48° C., 10 min at 95° C. and 40 cycles of 15 sec at 95° C. and 60 sec at 60° C. Analysis of real-time PCR analysis was performed using (Sequence Detector, Macintosh) program.
The initial experiments measured the expression of PAIGB in the rat tibia after 8 days of treatment. In order to examine the time course of PTH action on PAIGB expression, experiments were performed on rats treated with intermittent PTH injections (40 μg/kg body weight) and tibias were collected for RNA isolation as well as evaluation in BMD changes. Time points of sample collection were 6 hours, 2 days, 4 days and 8 days after intermittent PTH treatment. Real time PCR analysis was performed on isolated RNA samples using above described primers.
The observed increase in PAIGB expression in bone treated with PTH is dose-dependent (FIG. 10B). OVX rats with established osteopenia were treated with increasing concentration of human PTH (1-34): 5, 10, 20, 40 and 80 μg/kg of body weight for 8 days with one daily injection. Six hours after last injection animals were scarified and bone samples were harvested for RNA isolation as described in Experimental Procedure section.

PAIGB expression [2] = experiment: Real time PCR of PAIGB in brain, kidney and heart after intermittent PTH; type: in vivo, rat; settings: intermittent injection
Description: Applicants performed multiplex real time PCR (TaqMan) analysis on previously DNAsed samples using gene specific probe and primers and 18S ribosomal RNA probe and primer sets purchased from Applied Biosystem. (Foster City, Calif.) The samples were DNAsed according to the protocol provided by Ambion (DNA-free kit). TaqMan probe and primers for PAIGB was identify using Primer Express computer program. The sequence for rat PAIGB TaqMan probe was 6FAM-5′[…] (SEQ ID NO: 16) forward and reverse primers were 5′[…] 3′ (SEQ ID NO:17) and 5′ […] 3′ (SEQ ID NO:18) respectively. The final concentrations for probes were 500 nM and 40 nM for PAIGB and 18S ribosomal RNA or GAPDH respectively. The concentrations of the primers were 500 nM for PAIGB forward and reversed primers while 18S primers were 10 and 20 nM for forward and reversed primer respectively or 40 nM for GAPDH primers. Standards for rat samples were made from rat tibia or brain RNA in the range of 250 ng to 0.1 ng, while standards for mouse specific TaqMan were made from mouse brain RNA and human standards from human brain RNA (Clonetech, Palo Alto, Calif.) spanning the same range of concentration. Primers and probes for mouse PAIGB were: forward 5′ […] 3′ (SEQ ID NO:19), reverse, 5′ […] 3′ (SEQ ID NO:20) anti-sense and probe 5′ 6FAM-[…] (SEQ ID NO:21). Primers and probes for human PAIGB were: forward 5′ […] 3′ (SEQ ID NO:22), reverse 5′ […] […]

PAIGB protein = experiment: Immunohistochemistry of PAIGB protein in mouse calvariae; type: in vivo; settings: Swiss Webster mice, 20 μg/kg/day sc onto the calvariae, 18 days
Protocol: Immunohistochemical analysis of PAIGB protein express can be assessed in various animal species such as human bone biopsy samples, mouse, rat, or dog bone samples etc., that have been treated with potential bone anabolic agents. For example, Swiss Webster mice were treated with 20 μg/kg/day PTH 1-34 subcutaneously onto the calvariae for 18 days. Following the 18 days, the calvariae samples were harvested and PAIGB protein expression was analyzed using the PAIGB polyclonal antibody (FIG. 20, FIG. 21 and FIG. 22).
The mouse calvariae was gently dissected and fixed in 10% phosphate-buffered formalin. After fixation, the calvariae were decalcified in TBD-2 decalcifying agent (SHANDON, Cat. # 6764003) for 7-8 hrs, dehydrated in graded alcohol, embedded in paraffin. The calvariae was bisected perpendicular to the sagittal suture through the central portion of the parietal bones parallel to the lambdoidal and coronal sutures and embedded in paraffin. Four to six 5 μm-thick representative, non-consecutive step sections were cut. Various sections were stained with hematoxylin and eosin (H&E) (Sigma, St. Louis, Mo.) and adjacent section were used for immunohistochemistry. The bone samples were then deparafinized in xylene and rehydrated in graded ethanol and PBS. […] The peroxidase was detected using peroxidase substrate kit DAB (SK-4100, Vector Laboratories).

PAIGB expression [3] = experiment: Northern blot of PAIGB in rat tibia RNA; type: in vivo; settings: intermittent PTH
Protocol: Isolated RNA was run on 1.2% agorase gel in 1×MOPS ((3-[N-morpholino]propanesulfonic acid) buffer) and formaldehyde. RNA gel was run in 1×MOPS (Sigma). RNA was transferred on nylon membrane (S&S) using Turbo-blot according to instruction provided by manufacturer (S&S). RADE fragment(s) as well as GAPDH or ciclophylin were labeled using random prime labeling kit (Gibco, BRL) according to provided instructions. Hybridization with labeled probes was performed using ExpressHyb (Sigma), at 68° C. over night. Blots were washed 2 times at room temperature for 15 min in low stringency buffer (2×SSC, 0.1% SDS), and 1 time at 65° C. for 15 min in […]. Blots were exposed over night using Kodak film.
In order to confirm the results from RADE experiments data, Northern blot analysis was done on RNA samples from rat tibia after intermittent and continuous PTH injections. […] In addition a multiple tissue northern blot was performed on the samples provided by commercially available blots. The northern blot analysis indicated very abundant expression of PAIGB in brain, but little expression in heart and lung.

## human PTH (1-34)
PAIGB expression [1]; 40 μg/kg, one daily injection, 8 days, OVX rats
  increase of PAIGB expression in bone: 10 fold
PAIGB expression [1]; 80 μg/kg, one daily injection, 8 days, OVX rats
  increase of PAIGB expression in bone: 20 fold
PAIGB expression [1]; 5, 10 and 20 μg/kg, one daily injection, 8 days, OVX rats
  effect on PAIGB expression in bone: did not have any effect
PAIGB expression [1]; 4 days of intermittent injection
  PAIGB expression over vehicle treated rats: 20 fold
PAIGB expression [1]; intermittent 40 μg/kg, days 4 and 8, compared with day 2
  effect on PAIGB expression in tibia: at the same magnitude
PAIGB expression [1]; intermittent 40 μg/kg, two days
  increase of PAIGB expression in tibia: ~20 fold
PAIGB expression [2]
  changes in PAIGB expression in brain, kidney and heart: did not produce any changes
PAIGB protein
  PAIGB protein expression in calvariae (immunohistochemistry): induced
PAIGB expression [3]
  increase of PAIGB expression vs vehicle (phosphor-imager, Northern blot): 36 fold
